Measured values from US5340816A, “Hydroxymethyl(methylenecyclopentyl) purines and pyrimidines” (E. R. Squibb & Sons, Inc., priority 1993, dated 1994).

What was measured:
HCMV = HCMV antiviral plaque reduction assay in WI-38 cell culture monolayers; format: cell-based, human cytomegalovirus, strain AD 169; details: Human betaherpesvirus 5, WI-38 cells, 5-7 days at 37° C., read-out: ID50 for HCMV
Method: (§1) Assays were performed in cell culture systems to determine the concentrations of compounds that are effective in preventing several kinds of viral infections.
(§2) HSV-1 (herpes simplex virus type 1, strain Schooler), HSV-2 (herpes simplex virus type 2, strain 186), VZV (varicella zoster virus, strain ELLEN), HCMV (human cytomegalovirus, strain AD 169 HIV (human immununodeficiency virus, strain HTLV-IIIB).
(§3) HSV-1, HSV-2, HCMV and VZV antiviral assays: Virus was adsorbed to WI-38 cell culture monolayers in 6 well culture plates (Costar, Cambridge, Mass.) for 1 hour prior to addition of maintenance medium containing duplicate dilutions of the test compound. Inhibition of plaque development was evaluated on fixed and stained monolayers after 4 days incubation at 37° C. for HSV-1 and HSV-2, and after 5-7 days incubation at 37° C. for HCMV and VZV. ID50 values were determined from the drug concentration which conferred at least a 50% plaque reduction compared to virus controls.

HSV-1 = HSV-1 antiviral plaque reduction assay in WI-38 cell culture monolayers; format: cell-based, herpes simplex virus type 1, strain Schooler; details: Human alphaherpesvirus 1, 96 h, WI-38 cells, 4 days at 37° C., read-out: ID50 for HSV-1
Method: as §1, §2, §3

HSV-2 = HSV-2 antiviral plaque reduction assay in WI-38 cell culture monolayers; format: cell-based, herpes simplex virus type 2, strain 186; details: Human alphaherpesvirus 2, 96 h, WI-38 cells, 4 days at 37° C., read-out: ID50 for HSV-2
Method: as §1, §2, §3

VZV = VZV antiviral plaque reduction assay in WI-38 cell culture monolayers; format: cell-based, varicella zoster virus, strain ELLEN; details: Human alphaherpesvirus 3, WI-38 cells, 5-7 days at 37° C., read-out: ID50 for VZV
Method: as §1, §2, §3

HIV = HIV antiviral assay (reduction of viral cytopathic effect in MT-2 cells, XTT-PMS); format: cell-based, human immununodeficiency virus, strain HTLV-IIIB; details: Human immunodeficiency virus 1, MT2, 168 h, 7 days, read-out: reduction in viral CPE (HIV)
Method: as §1, §2
HIV antiviral assay: Suspensions of MT-2 cells (S. Harada, et al., Science, 229, 563 (1985)) were infected at a multiplicity of infection of 0.03 TLID50 /cell with HIV (strain HTLV-III B). […] Following incubation, viable cell numbers were counted in each well using a colorimetric assay following incubation of cells with XTT-PMS solution (XTT tetrazolium reagent plus phenazine methosulfate PMS).
(§4) Percent reduction of viral cytopathic effect (CPE) in drug treated compared to untreated virus infected cells, and percent reduction of cell viability in drug treated uninfected cells compared to untreated controls were calculated and plotted versus the drug concentrations tested. […]

[1] = Reduction of cell viability in uninfected MT-2 cells (XTT-PMS); format: cell-based; details: human, 7 days
Method: HIV antiviral assay: Suspensions of MT-2 cells (S. Harada, et al., Science, 229, 563 (1985)) were infected at a multiplicity of infection of 0.03 TLID50 /cell with HIV (strain HTLV-III B). After adsorption for 1-2 hours at 37° C., infected cells were diluted in growth medium (RPMI 1640 containing the antibiotics penicillin plus streptomycin and 10% fetal calf serum) to give a final cell concentration of 1×10^4 viable cells/culture well in the presence of serial dilutions of the test compound, starting at 100 μg/ml. Triplicate samples at each drug concentration were used. Cultures of uninfected MT-2 cells were similarly prepared and incubated with serial dilutions of test compound in duplicate. All assays were performed in 96 well disposable cell culture plates. Untreated (infected and uninfected) cells were included as controls. […] Following incubation, viable cell numbers were counted in each well using a colorimetric assay following incubation of cells with XTT-PMS solution (XTT tetrazolium reagent plus phenazine methosulfate PMS).
as §4

## C=C1[C@H](CO)[C@@H](O)C[C@@H]1n1ccc(N)nc1=O
HCMV
  IC50: 2.1 to 4.2 µM
HSV-1
  IC50: 4.2 to 8.4 µM
HSV-2
  IC50: 2.1 to 4.2 µM
VZV
  IC50: 4.2 to 42 µM

## C=C1[C@H](CO)[C@@H](O)C[C@@H]1n1cc(/C=C/I)c(=O)[nH]c1=O
HCMV
  IC50: > 260 µM
HSV-1
  IC50: 0.5 to 1.3 µM
HSV-2
  IC50: 13 to 26 µM
VZV
  IC50: 0.05 to 0.14 µM

## C=C1[C@H](CO)[C@@H](O)C[C@@H]1n1cnc2c(N)ncnc21 [[1R-(1α,3α,5β)]-3-(6-Amino-9H-purin-9-yl)-5-hydroxy-2-methylenecyclopentanemethanol]
HCMV
  IC50: > 38 µM
HSV-1
  IC50: 191 to 383 µM
HSV-2
  IC50: 191 to 383 µM
VZV
  IC50: > 96 µM
HIV; at 27 μM
  inhibition at 27 µM: 50%
[1]; at 27 μM
  cytotoxicity at 168 h, 27 µM: 23%

## C=C1[C@H](CO)[C@@H](O)C[C@@H]1n1cc(I)c(=O)[nH]c1=O [[1S-(1α,3α,4β)]-1-[4-Hydroxy-3-(hydroxymethyl)-2-methylenecyclopentyl]-5-iodo-2,4(1H,3H)pyrimidinedione]
HCMV
  IC50: 68 to 137 µM
HSV-1
  IC50: 6 to 14 µM
HSV-2
  IC50: > 275 µM
VZV
  IC50: 68 to 137 µM

## C=C1[C@H](CO)[C@@H](O)C[C@@H]1n1cc(C)c(=O)[nH]c1=O [[1S-(1α,3α,4β)]-1-[4-Hydroxy-3-(hydroxymethyl)-2-methylenecyclopentyl]-5-methyl-2,4(1H,3H)-pyrimidinedione]
HCMV
  IC50: ≥ 396 µM
HSV-1
  IC50: 8 to 20 µM
HSV-2
  IC50: 40 to 100 µM
VZV
  IC50: 40 to 400 µM

## C=C1[C@H](CO)[C@@H](O)C[C@@H]1n1cnc2c(=O)[nH]c(N)nc21 [[1S-(1α,3α,4β)]-2-Amino-1,9-dihydro-9-[4-hydroxy-3-(hydroxymethyl)-2-methylenecyclopentyl]-6H-purin-6-one]
HCMV
  IC50: 90 µM
HSV-1
  IC50: 3.6 µM
HSV-2
  IC50: 7.2 to 18 µM
VZV
  IC50: 18 to 36 µM
HIV; at 12 μM
  inhibition at 12 µM: 41%
[1]; at 12 μM
  cytotoxicity at 168 h, 12 µM: 4%

## C=C1[C@H](CO)[C@@H](O)C[C@@H]1n1cc(/C=C/Br)c(=O)[nH]c1=O [[1S-[1α(E),3α,4β)]-5-(2-Bromoethenyl)-1-[4-hydroxy-3-(hydroxymethyl)-2-methylenecyclopentyl]-2,4(1H,3H)-pyrimidinedione]
HCMV
  IC50: 291 µM
HSV-1
  IC50: 0.6 to 1.5 µM
HSV-2
  IC50: 29 to 73 µM
VZV
  IC50: 0.3 to 0.6 µM

## C=C1[C@H](CO)[C@@H](O)C[C@@H]1n1cc(/C=C/Cl)c(=O)[nH]c1=O [[1S-[1α(E),3α,4β]]-5-(2-Chloroethenyl)-1-[4-hydroxy-3-(hydroxymethyl)-2-methylenecyclopentyl]-2,4(1H,3H)-pyrimidinedione]
HSV-1
  IC50: 0.07 to 0.16 µM
HSV-2
  IC50: 2 µM
VZV
  IC50: 1.7 µM
